# Structures can show the parent of a compound that is named as a salt.
# How the values were obtained:
# [1] = molecular target: T1, human m4 receptor (Homo sapiens, UniProt P08173); test: inhibition of forskolin-stimulated cAMP accumulation, m4 receptor; format: cell-based; conditions: standard agonist, typical value, 5 μM forskolin
# T1 construct: host or cells: CHO-K1
# T1 sequence (P08173 1-479): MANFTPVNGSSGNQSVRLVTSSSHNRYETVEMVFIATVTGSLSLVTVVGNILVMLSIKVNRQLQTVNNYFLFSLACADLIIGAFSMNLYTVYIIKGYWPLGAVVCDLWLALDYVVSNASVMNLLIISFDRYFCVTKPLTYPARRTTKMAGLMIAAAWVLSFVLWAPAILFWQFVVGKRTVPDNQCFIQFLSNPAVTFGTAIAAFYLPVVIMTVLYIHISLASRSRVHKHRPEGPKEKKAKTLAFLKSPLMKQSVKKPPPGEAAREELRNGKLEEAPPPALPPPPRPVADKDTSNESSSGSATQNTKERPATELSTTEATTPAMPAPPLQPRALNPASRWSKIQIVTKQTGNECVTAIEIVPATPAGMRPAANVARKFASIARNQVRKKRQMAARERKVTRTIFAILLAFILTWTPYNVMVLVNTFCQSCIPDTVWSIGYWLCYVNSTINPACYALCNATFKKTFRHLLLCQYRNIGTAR
# Description: (§1) Activity of the compounds of formula I for muscarinic receptors can be determined according to the following protocol. Chinese hamster ovary cells (CHO-K1) stably transformed to express human m1-m5 receptors can be obtained from Dr. Tom Bonner (Laboratory of Cell Biology, National Institute of Mental Health, Building 36, Rm 3A-17, National Institute of Health, Bethesda, Md. 20892). Cells are maintained in Dulbecco's Modified Eagle Medium containing 10% fetal calf serum and harvested at confluence by brief incubation in Ca^++/Mg^++-free phosphate-buffered saline containing 4 mM EDTA.
# (§2) Functional responses at m2 and m4 receptors can be determined by measuring inhibition of forskolin-stimulated cAMP accumulation. Harvested cells are preincubated (15 minutes at 20-22° C.) with 3-isobutyl-1-methyl-xanthine (IBMX; 0.2 mM) and then incubated (10 minutes at 20-22° C.) in a HEPES-buffered Krebs solution with test compounds in the presence of 5 μM forskolin. The reaction is stopped by the addition of 10 N acetic acid and the cAMP content of dried supernatants is determined using a scintillation proximity assay (Amersham).
# [2] = molecular target: T2, human m2 receptor (Homo sapiens, UniProt P08172); test: inhibition of forskolin-stimulated cAMP accumulation, m2 receptor; format: cell-based; conditions: standard agonist, typical value, 5 μM forskolin
# T2 sequence (P08172 1-466): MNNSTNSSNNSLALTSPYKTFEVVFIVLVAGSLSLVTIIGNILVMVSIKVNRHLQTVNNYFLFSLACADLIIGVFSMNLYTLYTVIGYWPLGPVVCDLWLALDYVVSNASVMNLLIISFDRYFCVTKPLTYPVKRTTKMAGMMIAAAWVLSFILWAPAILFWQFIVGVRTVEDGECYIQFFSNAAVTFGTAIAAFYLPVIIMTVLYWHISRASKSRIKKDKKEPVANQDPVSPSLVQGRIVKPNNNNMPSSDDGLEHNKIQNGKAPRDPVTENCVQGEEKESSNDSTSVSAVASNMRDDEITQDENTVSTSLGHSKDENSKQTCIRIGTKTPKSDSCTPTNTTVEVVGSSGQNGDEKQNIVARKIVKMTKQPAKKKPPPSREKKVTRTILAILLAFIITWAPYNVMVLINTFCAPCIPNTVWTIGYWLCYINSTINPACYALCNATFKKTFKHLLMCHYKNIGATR
# Description: as §1, §2
inhibition of the forskolin-stimulated cAMP levels [1],inhibition of the forskolin-stimulated cAMP levels [2],melting point,SMILES
60-80%,60-80%,,C[N+](C)(C)CCOC(N)=O [Carbachol]
,,240 to 242 °C,"Cc1ccccc1C(=Nc1ccc(F)cc1)NC(=Nc1ccccc1)N1CCCCCC1 (as salt: hydrochloride) [Example 34, N-(azepan-1-yl-phenylimino-methyl)-N′-(4-fluoro-phenyl)-2-methyl-benzamidine]"
,,162 to 164 °C (dec.),"Cc1cccc(C)c1C(=NC(=Nc1ccc(F)cc1)N1CCCCC1C)Nc1ccc(F)cc1 (centres unmarked) (as salt: hydrochloride) [Example 43, N-(4-fluoro-phenyl)-N′-[(4-fluoro-phenylimino)-(2-methyl-piperidin-1-yl)-methyl]-2,6-dimethyl-benzamidine]"
,,140 to 142 °C (dec.),"Cc1ccccc1C(=CC(=NC1CC1)N1CCCCO1)Nc1ccc(F)cc1 (as salt: hydrochloride) [Example 107, (3cyclopropylimino-3-[1,2]oxazinan-2-yl-1-o-tolyl-propenyl)-(4-fluoro-phenyl)-amine]"

# Source: patent publication US6911477B2, “Muscarinic receptor agonists” (Pfizer Inc., priority 1996, dated 2005)
